Like-named read-outs stand apart in the source and are kept apart here.
How the values were obtained:
Format in all cases: cell-based
[1] = system: mixture of periodontal bacteria; experiment: short interval killing test (SIKT), total surviving flora
From the text: (§1) The anti-microbial activity of the mouth rinse evaluated "in vitro" by mortality studies over short intervals of time (short interval killing test, SIKT) against a mixture of periodontal bacteria containing between 1.0*10^5 and 1.0*10^7 CFU ml of each strain. The total counts obtained in the surviving flora and those pertaining to each strain after one minute of contact are summarised in Tables 3 and 4. TABLA 3

P. intermedia = experiment: short interval killing test (SIKT), count per strain
From the text: as §1

P. gingivalis = experiment: as above
From the text: as §1

F. nucleatum = experiment: as above
From the text: as §1

[2] = system: Peptostreptococcus micros; experiment: as above
From the text: as §1

P.intermedia = experiment: minimum inhibitory concentration (MIC), method of diffusion in agar
From the text: (§2) The anti-microbial activity of a certain number of active ingredients was obtained by study of the minimum inhibitory concentrations (MIC) of the respective agents (by the method of diffusion in agar) against bacteria representing periodontal disease.

P.gingivalis = experiment: as above
From the text: as §2

A.actinomycetemcomitans = experiment: as above
From the text: as §2

[3] = one minute of contact, 1.0*10^5 to 1.0*10^7 CFU ml of each strain, PBS = 100%
[4] = P. intermedia, one minute of contact, PBS = 100%
[5] = P. gingivalis, one minute of contact, PBS = 100%
[6] = F. nucleatum, one minute of contact, PBS = 100%
[7] = Peptostreptococcus micros, one minute of contact, PBS = 100%

Structure (SMILES): N=C(NCCCCCCNC(=N)NC(=N)Nc1ccc(Cl)cc1)NC(=N)Nc1ccc(Cl)cc1.O=C(O)[C@H](O)[C@@H](O)[C@H](O)[C@H](O)CO.O=C(O)[C@H](O)[C@@H](O)[C@H](O)[C@H](O)CO [CHX, 1,6-bis (N^5-p-chlorophenyl-N^1-diguanido)hexane digluconate]
- Total CFU/ml recovered (%) at 1 minute [1, 3]: 25.55%
- CFU/ml recovered from each strain (%) (P. intermedia; [4]): <0.56%
- CFU/ml recovered from each strain (%) (P. gingivalis; [5]): <0.81%
- CFU/ml recovered from each strain (%) (F. nucleatum; [6]): 0.87%
- CFU/ml recovered from each strain (%) [2, 7]: 82.12%

Structure (SMILES): CCCCCCCCCCCCCCCC[n+]1ccccc1 [CPC, cetylpyridinium chloride]
- Total CFU/ml recovered (%) at 1 minute [1]: 0.04%
- CFU/ml recovered from each strain (%) (P. intermedia): 0.01%
- CFU/ml recovered from each strain (%) (P. gingivalis): <0.01%
- CFU/ml recovered from each strain (%) (F. nucleatum): 0.05%
- CFU/ml recovered from each strain (%) [2]: 0.03%

Structure (SMILES): [H]/N=C(\N/C(=N/[H])NCCCCCCNC(=N)NC(=N)Nc1ccc(Cl)cc1)Nc1ccc(Cl)cc1 [Chlorhexidine]
- Minimum inhibitory concentration (MIC, % concentration) (P.intermedia): 0.0009%
- Minimum inhibitory concentration (%) (P.gingivalis): 0.002%
- Minimum inhibitory concentration (A.actinomycetemcomitans): 0.004%

Structure (SMILES): O=C([O-])[C@H](O)[C@@H](O)[C@H](O)[C@H](O)CO.O=C([O-])[C@H](O)[C@@H](O)[C@H](O)[C@H](O)CO.[Cu+2] [Cu^++ gluconate]
- Minimum inhibitory concentration (MIC, % concentration) (P.intermedia): 0.004%
- Minimum inhibitory concentration (%) (P.gingivalis): 0.06%

Structure (SMILES): CCCCC(CC)CN1CN(CC(CC)CCCC)CC(C)(N)C1 (centres unmarked) [Hexetidine]
- Minimum inhibitory concentration (MIC, % concentration) (P.intermedia): 0.001%
- Minimum inhibitory concentration (%) (P.gingivalis): 0.001%
- Minimum inhibitory concentration (A.actinomycetemcomitans): 0.09%

Structure (SMILES): Oc1cc(Cl)ccc1Oc1ccc(Cl)cc1Cl [Triclosan, 5-chloro-2-(2,4-dichlorophenoxy)-phenol]
- Minimum inhibitory concentration (MIC, % concentration) (P.intermedia): 0.009%
- Minimum inhibitory concentration (%) (P.gingivalis): 0.004%
- Minimum inhibitory concentration (A.actinomycetemcomitans): 0.0006%

Structure (SMILES): O=S(=O)([O-])[O-].[Zn+2] [Zn^++, sulphate]
- Minimum inhibitory concentration (MIC, % concentration) (P.intermedia): 0.5%
- Minimum inhibitory concentration (%) (P.gingivalis): 0.5%
- Minimum inhibitory concentration (A.actinomycetemcomitans): 0.1%
- Total CFU/ml recovered (%) at 1 minute [1, 3]: 47.65%
- CFU/ml recovered from each strain (%) (P. intermedia; [4]): 0.56%
- CFU/ml recovered from each strain (%) (P. gingivalis; [5]): 33.9%
- CFU/ml recovered from each strain (%) (F. nucleatum; [6]): 40.9%
- CFU/ml recovered from each strain (%) [2, 7]: 54.5%

Reference: patent publication EP0920857B1, “Oral composition for the treatment of halitosis” (DENTAID, S.A., priority 1997, dated 1999)
